Results as given in patent US4158052A, “Oil-free adjuvant compositions containing N-acetyl-muramyl-L-alanyl-D-isoglutamine” (priority 1975, dated 1979).
Entries after “also recorded” stand apart in the source; their conditions may differ.

Assays:
[1] = system: Swiss common stock mice; assay: Toxicity: lethal dose in mice, intravenous injection; format: in vivo; conditions: 300 μg, adrenalectomised mice
Experimental: The compound according to the invention has been compared with the lipopolysaccharide (LPS) prepared by the phenol-water procedure from S.enteriditis, with regard to their lethal doses (LD).
The method used to carry out these experiments is described by Chedid and al. in Ann. N.Y. Acad. Sci. 133:712, 1966. The tests are made on two month old Swiss common stock mice. The assayed products are administered by intravenous injections.
The compound according to the invention has been compared with the lipopolysaccharide (LPS) prepared by the phenol-water procedure from S.enteriditis with regard to their lethal dose (LD).
The method used to carry out these experiments is described by Chedid and al. in Ann. N.Y. Acad. Sci. 135:712, 1966. The tests are made on two month old Swiss common stock mice. The assayed products are administered by intravenous injection.

[2] = system: mice; assay: Adjuvanticity in aqueous solution: antibody levels in mice after BSA plus adjuvant in saline (PHA, ABC); format: in vivo; conditions: for antibody ABC Day 14 / antibody ABC Day 28 / antibody PHA Day 14 / antibody PHA Day 28: primary response; for antibody ABC Day 34 / antibody ABC Day 36 / antibody PHA Day 34 / antibody PHA Day 36: secondary response (BSA recall day 30); for adjuvanticity in aqueous solution (antibody titer), in words: administered in saline with BSA, mice
Experimental: In these experiments, the antibody levels in mice are determined following the injection of various compositions. The injected compositions contain bovine serum albumin (BSA) as antigen and the adjuvant compound according to the invention. The mice used as controls received the BSA and lipopolysaccharides. The compositions are injected in solution in saline. The injected dose of BSA is 0.5 mg per mouse, the recall dose (30 days after the first injection) contains 0.1 mg of BSA. Each tested composition is administered to eight mice. At various time intervals following the injection, the mice are bled to check the antibody level.
The antibody estimation is made either by passive hemagglutination (PHA) using formalinized sheep red blood cells coated with the tested antigen, or according to the method taught by A. A. Hirata and M. W. Brandiss (J. Immunol., 100, 641-648, 1968), or by the so-called antigen binding capacity method as described by P. Minden and S. Farr (Handbook of Exp. Immunol., p. 463, Weir D. M. ed. Blackwell Scientific Pub., Oxford and Edinburgh, 1967). […]
The antibody estimation is made either by passive hemagglutination (PHA) using formalinized sheep red blood cells coated with the tested antigen, or according to method taught by A. A. Hirata and M. W. Brandiss (J. Immunol., 100, 641-648, 1968), or by the so-called antigen binding capacity method described by P. Minden and S. Farr (Handbook of Exp. Immunol., p. 463, Weir D. M. ed. Blackwell Scientific Pub., Oxford and Edinburgh, 1967).

[3] = system: Hartley's guinea pigs; assay: Adjuvanticity with a water in oil emulsion (comparative assay), ovalbumin antigen; format: in vivo; conditions: 50 μg compound with FIA + ovalbumin
Experimental: As previously, the adjuvanticity is estimated from the increase of the antibody level following an antigen injection. In these experiments, ovalbumin is used as antigen. Assays are carried out on Hartley's guinea pigs weighing 350 g. The animals are injected with 0.1 ml in each posterior footpad. Each dose contains 1 mg ovalbumin and either the Freund's complete adjuvant (FCA) or the Freund's incomplete adjuvant (FIA) or this one with the compound of the invention (50 μg). The antibody titer is estimated 21 days after the injection, by passive hemagglutination as indicated above, or by precipitation according to Folin's method.
A skin test for delayed hypersensitivity is made 18 days after the injection on the same animals. They received 5 μg of ovalbumin by intradermal injection. 48 hours later, the diameter of reaction is measured (in mm).

[4] = system: Hartley guinea pigs; conditions: for immunogenicity, in words: conclusion from skin tests in guinea pigs; for hypersensitivity reaction, in words: guinea pigs treated with FIA + compound
Experimental: For comparison, simultaneous tests were carried out with Freund's complete adjuvant (FCA).
Hartley guinea pigs weighing 350 g are skin-tested. […] Forty-eight hours after this second injection, the diameter of reaction is measured (in mm).
The estimation is made as previously described.

[5] = system: mice; assay: Reaction to influenza virus: adjuvanticity with influenza vaccine (hemagglutination inhibition); format: in vivo; conditions: vaccine + adjuvant compound versus vaccine only, vaccine recall after 30 days
Experimental: The adjuvanticity of the Mur-NAc-L-Ala-D-Glu-α-NH2 has been studied against the influenza vaccine on mice. The tested animals are injected with the vaccine and the adjuvant compound whereas controls only received the vaccine. Thirty days later, a recall containing only the vaccine is injected.
It is to be observed that the antibody level is much higher in animals which have received both vaccine and adjuvant compound than in controls. (The measure is made by hemagglutination inhibition following the method proposed by the World Health Organisation Comitee (1953).)

[6] = 100 μg per mouse + BSA in saline
[7] = 30 μg per mouse + BSA in saline
[8] = 300 μg per mouse + BSA in saline

SMILES: CC(=O)N[C@H]1C(O)O[C@H](CO)[C@@H](O)[C@@H]1O[C@H](C)C(=O)N[C@@H](C)C(=O)N[C@H](CCC(=O)O)C(=O)O (stereo partly drawn) [Mur-NAc-L-Ala-D-Glu(OH), 2-(2-acetamido-2-deoxy-3-O-D-glucopyranosyl)-D-propionyl-L-alanyl-D-glutamic acid]
- survival after injection [1]: All mice survived
- antibody ABC Day 14 [2, 6]: < 20
- antibody ABC Day 28 [2, 6]: 80
- antibody PHA Day 14 [2, 6]: 3
- antibody PHA Day 28 [2, 6]: 50
- antibody ABC Day 34 [2, 6]: 320
- antibody ABC Day 36 [2, 6]: 630
- antibody PHA Day 34 [2, 6]: 400
- antibody PHA Day 36 [2, 6]: 2,130
- adjuvanticity in aqueous solution (antibody titer), in words [2]: induces an enhancement of the antibody titer
- antibody titer against ovalbumin, in words [3]: does not induce an increase of the antibody titer
- skin test reaction to ovalbumin (delayed hypersensitivity), in words ([3]; compared with FCA): light
- immunogenicity, in words [4]: not immunogenic
- hypersensitivity reaction, in words [4]: no hypersensitivity reaction is observed

SMILES: CC(=O)N[C@@H]1[C@@H](O[C@H](C)C(=O)N[C@@H](C)C(=O)N[C@H](CCC(=O)O)C(N)=O)[C@H](O)[C@@H](CO)O[C@H]1O [Mur-NAc-L-Ala-D-Glu-α-NH2, 2-(2-acetamido-2-deoxy-3-O-D-glucopyranosyl)-D-propionyl-L-alanyl-D-α-isoglutamine]
- survival after injection [1]: All the mice survived
- antibody ABC Day 14 [2, 7]: < 20
- antibody ABC Day 28 [2, 7]: 75
- antibody PHA Day 14 [2, 7]: 3
- antibody PHA Day 28 [2, 7]: 25
- antibody ABC Day 34 [2, 7]: 210
- antibody ABC Day 36 [2, 7]: 400
- antibody PHA Day 34 [2, 7]: 200
- antibody PHA Day 36 [2, 7]: 800
- antibody ABC Day 14 [2, 6]: < 20
- antibody ABC Day 28 [2, 6]: 82
- antibody PHA Day 14 [2, 6]: < 3
- antibody PHA Day 28 [2, 6]: 25
- antibody ABC Day 34 [2, 6]: 270
- antibody ABC Day 36 [2, 6]: 520
- antibody PHA Day 34 [2, 6]: 400
- antibody PHA Day 36 [2, 6]: 2150
- antibody ABC Day 14 [2, 8]: < 20
- antibody ABC Day 28 [2, 8]: 50
- antibody PHA Day 14 [2, 8]: < 3
- antibody PHA Day 28 [2, 8]: 25
- antibody ABC Day 34 [2, 8]: 230
- antibody ABC Day 36 [2, 8]: 550
- antibody PHA Day 34 [2, 8]: 200
- antibody PHA Day 36 [2, 8]: 975
- adjuvanticity in aqueous solution (antibody titer), in words [2]: induces an enhancement of the antibody titer that can be compared with the one caused by injecting the LPS; also recorded: high antibody titers were observed
- antibody level against influenza vaccine (hemagglutination inhibition), in words [5]: much higher
- immunogenicity, in words [4]: not immunogenic
- hypersensitivity reaction, in words [4]: no hypersensitivity reaction is observed
